Experimental data taken from ChEMBL document CHEMBL1201862, “PubChem BioAssay data set” (2004).
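Cultured in 96-well plates, cells were exposed to test compound for 48 hours across five concentrations. At the GI50, growth is halved.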 Activity calls are given as the source filed them. Rule as the data show it: active = GI50 up to about 1.1 µM and inactive = higher.

What was measured:
Assay in all cases: inhibition of tumour cell growth, NCI panel, 48 h
SNB-75 = system: SNB-75
NCI-H522 = system: NCI-H522
HT-29 = system: HT-29
Malme-3M = system: Malme-3M
HCT-116 = system: HCT-116
OVCAR-8 = system: OVCAR-8
HCC 2998 = system: HCC 2998
SF-268 = system: SF-268
NCI-H460 = system: NCI-H460
RXF 393 = system: RXF 393
SF-295 = system: SF-295
SW-620 = system: SW-620
LOX IMVI = system: LOX IMVI
NCI-H226 = system: NCI-H226
A498 = system: A498
SN12C = system: SN12C
U-251 = system: U-251
MCF7 = system: MCF7

Structure (SMILES) | GI50 (SNB-75) | GI50 (NCI-H522) | GI50 (HT-29) | GI50 (Malme-3M) | GI50 (HCT-116) | GI50 (OVCAR-8) | GI50 (HCC 2998) | GI50 (SF-268) | GI50 (NCI-H460) | GI50 (RXF 393) | GI50 (SF-295) | GI50 (SW-620) | GI50 (LOX IMVI) | GI50 (NCI-H226) | GI50 (A498) | GI50 (SN12C) | GI50 (U-251) | GI50 (MCF7)
Cc1ccc(S(=O)OC23CC4CC(CC(C4)C2)C3)cc1 (stereo not drawn) | 69.5 µM (inactive) | 30.5 µM (inactive) | > 100 µM (inactive) | > 100 µM (inactive) | > 100 µM (inactive) | > 100 µM (inactive) | > 100 µM (inactive) | 86.1 µM (inactive) | > 100 µM (inactive) | 70.1 µM (inactive) | > 100 µM (inactive) | 84.1 µM (inactive) | 39.2 µM (inactive) | > 100 µM (inactive) | > 100 µM (inactive) | > 100 µM (inactive) | 36.8 µM (inactive) | 
CCOC(=O)COc1ccccc1/C=C1\CCC(CN(C)C)C1=O (stereo not drawn) | 15.9 µM (inactive) | 2.72 µM (inactive) | 5.86 µM (inactive) | 5.19 µM (inactive) | 3.4 µM (inactive) | 4.2 µM (inactive) | 2.46 µM (inactive) | 5.45 µM (inactive) | 10.8 µM (inactive) | 2.93 µM (inactive) | 16.1 µM (inactive) | 2.55 µM (inactive) | 2.22 µM (inactive) | 17.5 µM (inactive) | 17.2 µM (inactive) | 5.96 µM (inactive) | 8 µM (inactive) | 2.57 µM (inactive)
COc1cc(/C=C2\[C@@H]3NC(Cc4c(OC)c(C)c(OC)c(OC)c43)C(=O)N2Cc2ccccc2)c(OC)c(C)c1OC | 27.7 µM (inactive) | 18.4 µM (inactive) | 24.9 µM (inactive) | 28.2 µM (inactive) | 37.5 µM (inactive) | 36.1 µM (inactive) | 38.6 µM (inactive) | 59.3 µM (inactive) | 21.6 µM (inactive) | 23 µM (inactive) | 40.8 µM (inactive) | 68.9 µM (inactive) | 42.7 µM (inactive) | 36.7 µM (inactive) | 30.9 µM (inactive) | 40.3 µM (inactive) | 35.2 µM (inactive) | 
[O-][Cl+3]([O-])([O-])O.c1ccc(/N=c2\nc(N3CCOCC3)ss2)cc1 | 19.9 µM (inactive) | 12.7 µM (inactive) | 20 µM (inactive) | 14.8 µM (inactive) | 14.6 µM (inactive) | 15 µM (inactive) | 21.1 µM (inactive) | 16 µM (inactive) | 17.6 µM (inactive) | 17.3 µM (inactive) | 18.7 µM (inactive) | 10.2 µM (inactive) | 16 µM (inactive) | 61.1 µM (inactive) | 27.7 µM (inactive) | 15.1 µM (inactive) | 15.2 µM (inactive) | 
CCOC(=O)CCC(=O)C1c2cccc(O)c2C(=O)c2c(O)cc(C)cc21 (stereo not drawn) | 0.578 µM (active) | 0.392 µM (active) | 2.47 µM (inactive) | 1.34 µM (inactive) | 0.805 µM (active) | 0.764 µM (active) | 0.507 µM (active) | 0.542 µM (active) | 0.342 µM (active) | 0.391 µM (active) | 0.332 µM (active) | 0.948 µM (active) | 0.729 µM (active) | 0.719 µM (active) | 2.28 µM (inactive) | 1.79 µM (inactive) | 0.252 µM (active) | 
CC(=S)NNC(=O)c1ccncc1 | > 100 µM (inactive) | > 100 µM (inactive) | > 100 µM (inactive) | > 100 µM (inactive) | > 100 µM (inactive) | > 100 µM (inactive) | > 100 µM (inactive) | > 100 µM (inactive) | > 100 µM (inactive) | > 100 µM (inactive) | > 100 µM (inactive) | > 100 µM (inactive) | > 100 µM (inactive) | > 100 µM (inactive) | > 100 µM (inactive) | > 100 µM (inactive) | > 100 µM (inactive) | 
